The structures appear in SMILES notation.

The assay has as its system C. glabrata ATCC 200918. Description: Checkerboard MIC assay, FICI. It is filed as cell-based, Candida glabrata. The conditions noted are these: combination with Compound 1. An excerpt: The following assay was used to determine the minimum inhibitory concentration (MIC) and fractional inhibitory concentration index (FICI) for combinations of an antifungal agent and a glycopeptide antibacterial agent. This assay and methods for calculating FICI are well known in the art. See, for example, Eliopoulos, E. G. and R. Moellering, Jr. “Antimicrobial Combinations” in Antibiotics in Laboratory Medicine, edited by V. Lorian, 4th Ed., Williams & Wilkins, Baltimore, MD, pp. 330-396 (1996); […] et al., Antimicrobial Agents and Chemotherapy 47(4):1416-1418 (2003); or […] et al., Antimicrobial Agents and Chemotherapy 46(10):3323-3326 (2002). Procedures, protocols, supplies and equipment used in this assay follow the recommendations approved and published by the National Committee for Clinical Laboratory Standards (NCCLS), Wayne, Pa. as described in NCCLS 2003, “Reference Method for Broth Dilution Antimicrobial Susceptibility Tests for Bacteria that Grow Aerobically; Approved Standard” (NCCLS document M7-A6); NCCLS 2002, “Reference Method for Broth Dilution Antifungal Susceptibility Tests of Filamentous Fungi that Grow Aerobically; Approved Standard” (NCCLS document M38-A); and NCCLS 2002 “Reference Method for Broth Dilution Antifungal Susceptibility Tests of Yeast; Approved Standards-2nd Edition” (NCCLS document M27-A2). Using a checkerboard method, a 2-fold dilution 100× final concentration master plate was prepared using a 96-well U-shape microtiter plate and an appropriate solvent. In the “checkerboard” method, a microtiter plate is divided into “columns” in which each well in the column contains the same amount of an antifungal agent (Compound A) being diluted along the x-axis, and “rows” in which each well in the row contains the same amount of a glycopeptide antibacterial agent (Compound B) being diluted on the y-axis. Also included is a row (or column) for Compound A or B alone. The dilutions used in the checkerboard are exponential (by powers of two). The result is that each well in the microtiter plate contains a unique concentration of the two compounds being tested. […] After mixing, 100 μL of 2× drug combinations were distributed into 96-well microtiter plates. […] Compound A was not added to Column 12, so Column 12 contained only Compound B. Compound B was diluted from row A starting at 6,400 μg/mL down to row G (100 μg/mL). Wells in Row A contained a final concentration of 64 μg/mL of Compound B; Row B contained a final concentration of 32 μg/mL of Compound B; Row C contained a final concentration of 16 μg/mL of Compound B; etc. Compound B was not added to Row H, so Row H only contained Compound A. […] The MIC of the glycopeptide antibacterial agent determined from this experiment was used in FIC calculations. […]

In the case of `C[C@@H]1[C@H](O)[C@@H](C)/C=C/C=C/C=C/C=C/C=C/C=C/C=C/[C@H](O[C@@H]2O[C@H](C)[C@@H](O)[C@H](N)[C@@H]2O)C[C@@H]2O[C@](O)(C[C@@H](O)C[C@@H](O)[C@H](O)CC[C@@H](O)C[C@@H](O)CC(=O)O[C@H]1C)C[C@H](O)[C@H]2C(=O)O` [Amphotericin B], the FICI was 0.19.

For `C[C@@H]1[C@H](O)[C@@H](C)/C=C/C=C/CC/C=C/C=C/C=C/C=C/C(O[C@H]2O[C@H](C)[C@@H](O)[C@H](N)[C@@H]2O)CC2O[C@](O)(CC(O)C(O)CCC(O)CC(O)CC(O)CC(=O)O[C@H]1C)CC(O)C2C(=O)O` (some centres unmarked) [Nystatin], the FICI is listed as 0.31.

(Values after patent US7521418B2, “Use of a polyene macrolide antifungal agent in combination with a glycopeptide antibacterial agent” (Theravance, Inc., priority 2003, dated 2009).)
